Columns and labels:
[1] = Stability in Mouse Plasma; format: in vitro ADME; settings: for half-life: mouse, plasma
[2] = background statement, cited from earlier work
[3] = Stability in SGF with pepsin; format: physicochemical
[4] = Stability in SGF without pepsin; format: physicochemical
[5] = physchem; settings: buffer, pH 6.5
[6] = Stability in PBS pH 6.5; settings: for half-life: PBS, pH 6.5, T½
[7] = Table 8, if calculated T½ < 0, T½ reported as 9999 min

For CC(C)[N+](C)(CCOC(=O)C1c2ccccc2Oc2ccccc21)C(C)C [Propantheline, reference compound], the “Remaining Percentage” value ([1]; Table 9, 0 min) was 100.00%, the “Remaining Percentage” value ([1]; Table 9, 15 min) was 85.78% and the “Remaining Percentage” value ([1]; Table 9, 30 min) was 70.74%. The “Remaining Percentage” value ([1]; Table 9, 60 min) was 29.46%, the “Remaining Percentage” value ([1]; Table 9, 120 min) was 8.74% and the “Remaining Percentage” value ([1]; Table 11, 0 min) was 100.00%. The “Remaining Percentage” value ([1]; Table 11, 15 min) was 80.81%, the “Remaining Percentage” value ([1]; Table 11, 30 min) was 64.04% and the “Remaining Percentage” value ([1]; Table 11, 60 min) was 34.86%. The “Remaining Percentage” value ([1]; Table 11, 120 min) was 9.05%, the half-life ([1]; Table 9, read-out: T½) was 32.6 min and the half-life ([1]; Table 11, read-out: T½) was 34.1 min.

In the case of CN(C)CCc1c[nH]c2ccccc12 [DMT, N,N-dimethyltryptamine], the estimated half-life ([2]; at higher doses) is listed as “less than fifteen minutes” and the oral bioavailability ([2]; converted by monoamine oxidases) is listed as “poor oral bioavailability”.

With CC(OC(=O)n1cc(CCN(C)C)c2ccccc21)OC(=O)C(C)(C)C (racemic) [VLS-03-15] the “Peak Area of MRM: 205.0/159.8 (analyte VLS-03-15 Parent)” value (“Peak Area of MRM” below) ([3]; 0 min) was 6.75E+05, the “Peak Area of MRM” value ([3]; 30 min) was 7.21E+05 and the “Peak Area of MRM” value ([3]; 60 min) was 7.26E+05. For the same compound, the “Peak Area of MRM” value ([3]; 120 min) was 7.14E+05, the “Peak Area of MRM” value ([3]; 240 min) was 7.15E+05 and the “Remaining Percentage” value ([3]; Table 8, 0 min) was 100.00%. The “Remaining Percentage” value ([3]; Table 8, 30 min) was 97.29%, the “Remaining Percentage” value ([3]; Table 8, 60 min) was 107.53% and the “Remaining Percentage” value ([3]; Table 8, 120 min) was 103.18%. For the same compound, the “Remaining Percentage” value ([3]; Table 8, 240 min) was 102.22%, the T½ [3, 7] was 166.65 h and the “Peak Area of MRM” value ([3]; VLS-03-15 standard) was 6.26E+05. For the same compound, the “Peak Area of MRM” value ([4]; 0 min) was 7.05E+05, the “Peak Area of MRM” value ([4]; 30 min) was 6.94E+05 and the “Peak Area of MRM” value ([4]; 60 min) was 6.55E+05. The “Peak Area of MRM” value ([4]; 120 min) was 7.09E+05, the “Peak Area of MRM” value ([4]; 240 min) was 6.96E+05 and the “Remaining Percentage” value ([4]; Table 8, 0 min) was 100.00%. For the same compound, the “Remaining Percentage” value ([4]; Table 8, 30 min) was 101.12%, the “Remaining Percentage” value ([4]; Table 8, 60 min) was 103.35% and the “Remaining Percentage” value ([4]; Table 8, 120 min) was 105.28%. For the same compound, the “Remaining Percentage” value ([4]; Table 8, 240 min) was 97.98%, the half-life [4, 7] was 131 h and the “Peak Area of MRM” value ([4]; VLS-03-15 standard) was 6.10E+05. For the same compound, the “Remaining Percentage” value ([1]; Table 9, 0 min) was 100.00%, the “Remaining Percentage” value ([1]; Table 9, 15 min) was 0.00% and the “Remaining Percentage” value ([1]; Table 9, 30 min) was 0.00%. The “Remaining Percentage” value ([1]; Table 9, 60 min) was 0.00%, the “Remaining Percentage” value ([1]; Table 9, 120 min) was 0.00% and the half-life [5] was 922 min. The “Peak Area of MRM” value ([6]; 0 min) was 6.56E+05, the “Peak Area of MRM” value ([6]; 30 min) was 6.55E+05 and the “Peak Area of MRM” value ([6]; 60 min) was 6.28E+05. For the same compound, the “Peak Area of MRM” value ([6]; 120 min) was 5.86E+05, the “Peak Area of MRM” value ([6]; 240 min) was 5.51E+05 and the “Remaining Percentage” value ([6]; Table 8, 0 min) was 100.00%. The “Remaining Percentage” value ([6]; Table 8, 30 min) was 96.93%, the “Remaining Percentage” value ([6]; Table 8, 60 min) was 89.82% and the “Remaining Percentage” value ([6]; Table 8, 120 min) was 89.44%. The “Remaining Percentage” value ([6]; Table 8, 240 min) was 82.54% and the “Peak Area of MRM” value ([6]; VLS-03-15 standard) was 6.74E+05.

For O=C(O)CCCc1ccc(N(CCCl)CCCl)cc1 [Chlorambucil, reference compound], the half-life [6, 7] was 47.2 min, the half-life ([6]; Table 10) was 43.2 min and the “Remaining Percentage” value ([6]; Table 8, 0 min) was 100.00%. The “Remaining Percentage” value ([6]; Table 8, 30 min) was 64.51%, the “Remaining Percentage” value ([6]; Table 8, 60 min) was 42.26% and the “Remaining Percentage” value ([6]; Table 8, 120 min) was 16.83%. The “Remaining Percentage” value ([6]; Table 8, 240 min) was 2.99%, the “Remaining Percentage” value ([6]; Table 10, 0 min) was 100.00% and the “Remaining Percentage” value ([6]; Table 10, 30 min) was 61.12%. The “Remaining Percentage” value ([6]; Table 10, 60 min) was 43.17%, the “Remaining Percentage” value ([6]; Table 10, 120 min) was 15.12% and the “Remaining Percentage” value ([6]; Table 10, 240 min) was 2.15%.
